From US20120245184A1 (Aderans Research Institute, Inc., priority 2006, published 2012) come the findings set out here.

Counter-ions that a name gives are not always drawn.

Experiment [1] has as its system sonic hedgehog pathway. The experiment can be described thus: Hedgehog reporter assay (gli-luciferase) in S12 cells. The class given is cell-based. The note with it: S12 mouse embryonic mesenchymal cells. The text has this:
Mouse (TM3: mouse Leydig cells; S12: mouse embryonic mesenchymal cells) and human (Daoy: human medulloblastoma cell; HepM: human embryonic palatal mesenchymal cell) cell lines are used to screen small molecules for their ability to modulate the activity of the sonic hedgehog pathway (Table 1, Table 2, and Table 3). Stable hedgehog pathway reporter cell lines are established by specific antibiotic selection following transfection of a reporter plasmid containing a luciferase gene located directly downstream from the gli promoter. Consequently, any observable changes in cellular luciferase activity may be attributed to changes in sonic hedgehog pathway activity in mouse and human cells, respectively, since gli is the major by-product of this pathway. To calculate activity, we generate an eleven point dose curve for each compound using 1:3 dilutions in 96 well assay plates. Each plate tested also contains low and high control to establish maximal pathway activation so to establish/compare a percentage activation of each tested compound (AMAX) on respective plates. Also we calculate EC50 values, or a concentration where the pathway will be exactly 50% activated, for each tested compound to determine potency. In these cell lines, compounds that register >20% AMAX values are considered active.
Stable hedgehog pathway reporter cell lines are established following specific antibiotic selection following transfection of a reporter plasmid
In short, typically cells are plated in MicroTiter-plates at 10,000-20,000 cells per well, in growth media (containing 10%-20% FBS). After 48-72 hrs (HGL and DGL respectively) the media in the assay plates is switched to low-serum containing media (0.5% FBS). At that time compounds are added (at 1-5 μM) to the assay plates, in the presence or absence of hedgehog protein (octyl-modified version; 1-5 ng/ml). After another 24 hrs of incubation, the media from the assay plates is discarded and replaced with luciferase assay-mix. Subsequently, plates are incubated at RT for ˜15-30 mins and then read in a luminometer. [note: addition of the Hedgehog protein, although not critical, will sensitize the assay allowing the identification of weak actives].
Background: Reporter assays use an easily measured gene product as a stand-in for the process of interest.

The test system of experiment [2] is sonic hedgehog pathway. The experiment can be described thus: Human hedgehog reporter assay HEPM-GliLuc (HGL). It is filed as cell-based. The conditions noted are these: HepM human embryonic palatal mesenchymal cells, gli-luciferase reporter; read-out: HEPM Avg. EC50. The gist of the method:
(§1)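 Stable gli-luciferase reporter lines (mouse TM3; human Daoy and HEPM) switched to 0.5% FBS medium, given compounds at 1-5 μM with or without octyl-modified hedgehog protein (1-5 ng/ml) for 24 hrs. Luminescence read; eleven-point 1:3 dose curves, activation expressed as percentage of plate controls (AMAX).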

Experiment [3] relates to sonic hedgehog pathway. Put plainly: Hedgehog reporter assay (gli-luciferase) in TM3 cells. The class given is cell-based, mouse. The note with it: TM3 mouse Leydig cells, gli-luciferase reporter; read-out: TM3 Avg. EC50. In short, it runs like this:
as §1

For experiment [4], the system named is sonic hedgehog pathway. Put plainly: Human hedgehog reporter assay Daoy-GliLuc (DGL). The class given is cell-based. The gist of the method: as §1
The mark [5] stands for this setting: Daoy human medulloblastoma cells, gli-luciferase reporter, read-out: Daoy Avg. EC50.
Where [6] appears, read: Daoy human medulloblastoma cells, gli-luciferase reporter, read-out: Human Daoy (Gli-Luc) Avg. EC50.
[7] abbreviates: Homo sapiens, Daoy, read-out: Human Daoy (Gli-Luc) Avg. EC50 (nM).

In general, EC50 refers to the concentration at which the effect is half-maximal. As to `CNC1CCC(N(Cc2cc(-c3cccnc3)ccc2OC)C(=O)c2sc3cccc(F)c3c2Cl)CC1` (centres unmarked) [360 (R16), 3-Chloro-4-fluoro-benzo[b]thiophene-2-carboxylic acid (2-methoxy-5-pyridin-3-yl-benzyl)-(4-methylamino-cyclohexyl)-amide dihydrochloride], the 50% effective concentration (EC50) in experiment [1] (read-out: S12 Avg. EC50), in experiment [2], in experiment [3] and in experiment [4] (setting [5]) was below 50 nM in each case.
As to `CNC1CCC(N(Cc2cc(-c3ccc(C(N)=O)cc3)ccc2OC)C(=O)c2sc3ccccc3c2Cl)CC1` (centres unmarked) [Compound 316, 3-Chloro-benzo[b]thiophene-2-carboxylic acid (4′-carbamoyl-4-methoxy-biphenyl-3-ylmethyl)-(4-methylamino-cyclohexyl)-amide hydrochloride], the EC50 in experiment [1] (read-out: S12 Avg. EC50), in experiment [2] and in experiment [3] was below 50 nM throughout.
As to `CNC1CCC(N(Cc2cc(-c3ccc(C(=O)N(C)C)cc3)ccc2OC)C(=O)c2sc3ccccc3c2Cl)CC1` (centres unmarked) [Compound 317 (R19), 3-Chloro-benzo[b]thiophene-2-carboxylic acid (4′-dimethylcarbamoyl-4-methoxy-biphenyl-3-ylmethyl)-(4-methylamino-cyclohexyl)-amide hydrochloride], the EC50 in experiment [1] (read-out: S12 Avg. EC50), in experiment [2] and in experiment [3] was below 50 nM throughout.
Take `CNC1CCC(N(Cc2cc(-c3ccc(N)nc3)ccc2OC)C(=O)c2sc3ccccc3c2Cl)CC1` (centres unmarked) [Compound 319, 3-Chloro-benzo[b]thiophene-2-carboxylic acid [5-(6-aminopyridin-3-yl)-2-methoxy-benzyl]-(4-methylamino-cyclohexyl)-amide dihydrochloride]: the concentration giving a half-maximal response (EC50) in experiment [1] (read-out: S12 Avg. EC50), in experiment [2] and in experiment [3] was below 50 nM throughout.
As for `CNC1CCC(N(Cc2cc(-c3ccc(CO)cc3)ccc2OC)C(=O)c2sc3ccccc3c2Cl)CC1` (centres unmarked) [Compound 329, 3-Chloro-benzo[b]thiophene-2-carboxylic acid (4′-hydroxymethyl-4-methoxy-biphenyl-3-ylmethyl)-(4-methylamino-cyclohexyl)-amide hydrochloride], the EC50 in experiment [1] (read-out: S12 Avg. EC50), in experiment [2] and in experiment [3] was below 50 nM each time.
On to `CN[C@H]1CC[C@@H](N(Cc2cc(-c3ccnc(C)c3)ccc2OC)C(=O)C2=C(Cl)c3c(C)ccc(F)c3C2)CC1` [Compound 355], for which the EC50 in experiment [1] (read-out: S12 Avg. EC50), in experiment [2] and in experiment [3] was below 50 nM each time.
Turning to `CNC1CCC(N(Cc2cc(-c3ccncc3)ccc2O)C(=O)c2sc3c(F)ccc(F)c3c2Cl)CC1` (centres unmarked) [Compound 368, 3-Chloro-4,7-difluoro-benzo[b]thiophene-2-carboxylic acid (2-hydroxy-5-pyridin-4-yl-benzyl)-(4-methylamino-cyclohexyl)-amide dihydrochloride], the EC50 in experiment [1] (read-out: S12 Avg. EC50), in experiment [2] and in experiment [4] (setting [5]) was below 50 nM each time.
For `CNC1CCC(N(Cc2cc(-c3ccc(S(N)(=O)=O)cc3)ccc2OC)C(=O)c2sc3c(F)ccc(F)c3c2Cl)CC1` (centres unmarked) [Compound 388, 3-Chloro-4,7-difluoro-benzo[b]thiophene-2-carboxylic acid(4-methoxy-4′-sulfamoyl-biphenyl-3-ylmethyl)-(4-methylamino-cyclohexyl)-amide hydrochloride], the EC50 in experiment [1] (read-out: Mouse S12 Avg. EC50) and in experiment [4] (setting [6]) was below 50 nM each time.
As for `CCS(=O)(=O)c1ccc(-c2ccc(OC)c(CN(C(=O)c3sc4c(F)ccc(F)c4c3Cl)C3CCC(NC)CC3)c2)cc1` (centres unmarked) [Compound 389, 3-Chloro-4,7-difluoro-benzo[b]thiophene-2-carboxylic acid (4′-ethanesulfonyl-4-methoxy-biphenyl-3-ylmethyl)-(4-methylamino-cyclohexyl)-amide hydrochloride], the concentration for a half-maximal effect (EC50) in experiment [1] (read-out: Mouse S12 Avg. EC50) and in experiment [4] (setting [7]) was below 50 nM in each case.
As for `COc1ccc(-c2ccc(S(C)(=O)=O)cc2)cc1CN(C(=O)c1sc2c(F)ccc(F)c2c1Cl)C1CCC(N)CC1` (centres unmarked) [Compound 390, 3-Chloro-4,7-difluoro-benzo[b]thiophene-2-carboxylic acid (4-amino-cyclohexyl)-(4′-methanesulfonyl-4-methoxy-biphenyl-3-ylmethyl)-amide hydrochloride], the half-maximal effective concentration (EC50) in experiment [1] (read-out: Mouse S12 Avg. EC50) and in experiment [4] (setting [7]) was below 50 nM each time.
`CNC1CCC(N(Cc2cc(-c3ccc(S(=O)(=O)N(C)C)cc3)ccc2OC)C(=O)c2sc3c(F)ccc(F)c3c2Cl)CC1` (centres unmarked) [Compound 391, 3-Chloro-4,7-difluoro-benzo[b]thiophene-2-carboxylic acid (4′-dimethylsulfamoyl-4-methoxy-biphenyl-3-ylmethyl)-(4-methylamino-cyclohexyl)-amide trifluoroacetate]: the EC50 in experiment [1] (read-out: Mouse S12 Avg. EC50) and in experiment [4] (setting [7]) was below 50 nM throughout.
With `CNC1CCC(N(Cc2cc(-c3ccncc3)ccc2C)C(=O)c2sc3c(F)ccc(F)c3c2Cl)CC1` (centres unmarked) [Compound 392, 3-Chloro-4,7-difluoro-benzo[b]thiophene-2-carboxylic acid (4-methylamino-cyclohexyl)-(2-methyl-5-pyridin-4-yl-benzyl)-amide bis(trifluoroacetate)], the EC50 in experiment [1] (read-out: Mouse S12 Avg. EC50) and in experiment [4] (setting [6]) was below 50 nM each time.
Take `C=Cc1ccc(-c2ccc(OC)c(CN(C(=O)c3sc4c(F)ccc(F)c4c3Cl)[C@H]3CC[C@H](N)CC3)c2)cc1` [Compound 393, N-((1r,4r)-4-aminocyclohexyl)-3-chloro-4,7-difluoro-N-((4-methoxy-4′-vinylbiphenyl-3-yl)methyl)benzo[b]thiophene-2-carboxamide]: the concentration giving a half-maximal response (EC50) in experiment [1] (read-out: Mouse S12 Avg. EC50) and in experiment [4] (setting [6]) was 50 to 250 nM in each case.
Take `CN[C@H]1CC[C@@H](N(Cc2cc(OC)cc(-c3ccncc3)c2)C(=O)C2=C(Cl)c3c(F)ccc(F)c3C2)CC1` [Compound 394, 3-Chloro-4,7-difluoro-benzo[b]thiophene-2-carboxylic acid(3-methoxy-5-pyridin-4-yl-benzyl)-(4-methylamino-cyclohexyl)-amide bis(trifluoroacetate)]: the EC50 in experiment [1] (read-out: Mouse S12 Avg. EC50) and in experiment [4] (setting [6]) was below 50 nM each time.
In the case of `CCc1ccc(-c2ccncc2)cc1CN(C(=O)C1=C(Cl)c2c(F)ccc(F)c2C1)[C@H]1CC[C@@H](NC)CC1` [Compound 395, 3-Chloro-4,7-difluoro-benzo[b]thiophene-2-carboxylic acid(2-ethyl-5-pyridin-4-yl-benzyl)-(4-methylamino-cyclohexyl)-amide dihydrochloride], the EC50 in experiment [1] (read-out: Mouse S12 Avg. EC50) and in experiment [4] (setting [6]) was 50 to 250 nM in each case.
Consider `CNC1CCC(N(Cc2cc(-c3ccccc3SC)ccc2OC)C(=O)c2sc3c(F)ccc(F)c3c2Cl)CC1` (centres unmarked) [Compound 408, 3-Chloro-4,7-difluoro-benzo[b]thiophene-2-carboxylic acid (4-methoxy-2′-methylsulfanyl-biphenyl-3-ylmethyl)-(4-methylamino-cyclohexyl)-amide hydrochloride], for which the EC50 in experiment [1] (read-out: S12 Avg. EC50) and in experiment [4] (setting [5]) was 250 to 1000 nM throughout.
With `COc1ccc(-c2cccnc2)cc1CN(C(=O)c1sc2cccc(F)c2c1Cl)[C@H]1CC[C@H](N)CC1` [Compound 410, 3-Chloro-4-fluoro-benzo[b]thiophene-2-carboxylic acid(4-amino-cyclohexyl)-(2-methoxy-5-pyridin-3-yl-benzyl)-amide], the half-maximal effective concentration (EC50) in experiment [1] (read-out: S12 Avg. EC50) and in experiment [4] (setting [5]) was below 50 nM throughout.
In the case of `COc1ccc(-c2cncc(F)c2)cc1CN(C(=O)c1sc2c(F)ccc(F)c2c1Cl)[C@H]1CC[C@H](N)CC1` [Compound 416], the values for the EC50 in experiment [1] (read-out: S12 Avg. EC50) and in experiment [4] (setting [5]) were below 50 nM and 50 to 250 nM, respectively.
Regarding `CNC1CCC(N(Cc2cc(-c3ccc(NS(C)(=O)=O)nc3)ccc2OC)C(=O)c2sc3c(F)ccc(F)c3c2Cl)CC1` (centres unmarked) [Compound R10, 3-Chloro-4,7-difluoro-benzo[b]thiophene-2-carboxylic acid[5-(6-methanesulfonylamino-pyridin-3-yl)-2-methoxy-benzyl]-(4-methylamino-cyclohexyl)-amide dihydrochloride], the EC50 in experiment [1] (read-out: S12 Avg. EC50), in experiment [2] and in experiment [3] was below 50 nM each time.
